Assay results taken from the NIST ThermoML archive (doi:10.1021/acs.jced.7b00819).
Numbers after ± are expanded uncertainties.

Key:
[1] = Crystal; DTA
[2] = Molar enthalpy of transition or fusion; conditions: Crystal; DSC

Normal melting temperature [1] [°C]	Molar enthalpy of transition or fusion [2] [kcal/mol]	Compound
49.2 ± 0.7	4.4 ± 0.239	CCOC(=O)C1=NN(c2ccc(Cl)cc2Cl)C(C)(C(=O)OCC)C1 (centres undefined)
30.5 ± 0.7	5.88 ± 0.263	CCOC(=O)C1=NN(c2ccc(Cl)cc2Cl)[C@](C)(C(=O)OCC)C1
